Data published in ChEMBL document CHEMBL5236565, “Design, synthesis, and biological evaluation of novel 2'-methyl-2'-fluoro-6-methyl-7-alkynyl-7-deazapurine nucleoside analogs as anti-Zika virus agents” (Eur J Med Chem, 2022).
Values belong to the molecule of their own block, whether it stands above or below them. The source made the active and inactive calls. The rule behind the calls is not given here.

Tests used:
Zika virus [1] = assay: Antiviral activity against ZIKV infected in human A549 cells at 50 uM by microtiter assay relative to control; assay type: functional
A549 [2] = assay: Cytotoxicity against human A549 cells assessed as cell growth inhibition measured after 24 hrs by MTT assay; assay type: functional
Zika virus [3] = assay: Antiviral activity against ZIKV ZG-01 infected in human A549 cells assessed as reduction in viral induced cytopathic effect by measuring reduction in PFU measured after 4 days by neutral red staining based plaque assay; assay type: functional, organism-based; conditions: ZG-01, A549, 96 h; for EC90: time 4 day
Zika virus [4] = assay: Antiviral activity against ZIKV MR766 infected in human SNB-19 cells assessed as reduction in viral induced cytopathic effect by measuring reduction in PFU measured after 4 days by neutral red staining based plaque assay; assay type: functional, organism-based; conditions: MR766, SNB-19, 96 h
NS5 = NS5 (Zika virus, UniProt A0A143MHK7); assay: Binding affinity to N-terminal His-tagged recombinant ZIKV ZG-01 RdRp (272 to 903 residues) expressed in Escherichia coli rosetta by surface plasmon resonance assay
Chain of NS5 (A0A143MHK7 whole entry, the tested form may be a part): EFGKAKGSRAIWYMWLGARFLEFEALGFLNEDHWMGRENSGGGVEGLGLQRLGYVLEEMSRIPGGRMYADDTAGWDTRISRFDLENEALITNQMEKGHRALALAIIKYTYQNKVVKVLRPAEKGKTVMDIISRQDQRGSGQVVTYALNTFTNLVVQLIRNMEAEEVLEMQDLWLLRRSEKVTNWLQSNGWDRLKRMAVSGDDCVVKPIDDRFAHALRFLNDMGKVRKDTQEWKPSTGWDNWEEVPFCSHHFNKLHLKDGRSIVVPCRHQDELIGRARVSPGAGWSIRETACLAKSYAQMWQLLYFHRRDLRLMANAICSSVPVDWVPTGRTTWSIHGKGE

SNB-19 = assay: Cytotoxicity against human SNB-19 cells assessed as cell growth inhibition measured after 24 hrs by MTT assay; assay type: functional
Zika virus [5] = assay: Antiviral activity against ZIKV ZG-01 infected in African green monkey Vero cells assessed as reduction in viral induced cytopathic effect by measuring reduction in PFU measured after 4 days by neutral red staining based plaque assay; assay type: functional, organism-based; conditions: ZG-01, Vero, 96 h
Zika virus [6] = assay: Antiviral activity against ZIKV MR766 infected in human Huh-7 cells assessed as reduction in viral induced cytopathic effect by measuring reduction in PFU measured after 4 days by neutral red staining based plaque assay; assay type: functional, organism-based; conditions: MR766, Huh-7, 96 h
Zika virus [7] = assay: Antiviral activity against ZIKV MR766 infected in human A549 cells assessed as reduction in viral induced cytopathic effect by measuring reduction in PFU measured after 4 days by neutral red staining based plaque assay; assay type: functional, organism-based; conditions: MR766, A549, 96 h
Zika virus [8] = assay: Antiviral activity against ZIKV ZG-01 infected in human Huh-7 cells assessed as reduction in viral induced cytopathic effect by measuring reduction in PFU measured after 4 days by neutral red staining based plaque assay; assay type: functional, organism-based; conditions: ZG-01, Huh-7, 96 h
A549 [9] = assay: Downregulation of ZIKV E protein cleaved caspase 3 expression in human A549 cells at 2.5 to 25 uM by immunofluorescence analysis; assay type: functional, cell-based; conditions: dose 2.5-25 µM
Zika virus [10] = assay: Antiviral activity against ZIKV ZG-01 infected in human SNB-19 cells assessed as reduction in viral induced cytopathic effect by measuring reduction in PFU measured after 4 days by neutral red staining based plaque assay; assay type: functional, organism-based; conditions: ZG-01, SNB-19, 96 h
Huh-7 = assay: Cytotoxicity against human Huh-7 cells assessed as cell growth inhibition measured after 24 hrs by MTT assay; assay type: functional
[11] = Cytotoxicity against African green monkey Vero cells assessed as cell growth inhibition measured after 24 hrs by MTT assay; assay type: toxicity, cell-based; conditions: chlorocebus sabaeus
Vero = assay: Downregulation of ZIKV E protein cleaved caspase 3 expression in African green monkey Vero cells at 5 to 25 uM measured after 48 hrs by Western blotting analysis; assay type: functional, cell-based; conditions: Chlorocebus sabaeus, dose 5-25 µM
Zika virus [12] = assay: Antiviral activity against ZIKV MR766 infected in African green monkey Vero cells assessed as reduction in viral induced cytopathic effect by measuring reduction in PFU measured after 4 days by neutral red staining based plaque assay; assay type: functional, organism-based; conditions: 96 h
A549 [13] = assay: Downregulation of ZIKV E protein cleaved caspase 3 expression in human A549 cells at 5 to 25 uM measured after 48 hrs by Western blotting analysis; assay type: functional, cell-based; conditions: dose 5-25 µM
A549 [14] = assay: Induction of mitochondrial membrane potential loss in human A549 cells at 50 to 100 uM by JC-1 staining based fluorescence microscope; assay type: functional, cell-based; conditions: dose 50-100 µM

Compound: Cc1ncnc2c1c(C#Cc1cccnc1)cn2[C@@H]1O[C@H](CO)[C@@H](O)[C@@]1(C)F
- Activity (Zika virus [1]): <10%

Compound: Cc1ncnc2c1c(-c1ccc(-c3ccccc3)cc1)cn2[C@@H]1O[C@H](CO)[C@@H](O)[C@@]1(C)F
- Activity (Zika virus [1]): 29.9%

Compound: Cc1ncnc2c1c(C#Cc1ncccn1)cn2[C@@H]1O[C@H](CO)[C@@H](O)[C@@]1(C)F
- Activity (Zika virus [1]): <10%

Compound: Cc1ncnc2c1c(C#Cc1cccs1)cn2[C@@H]1O[C@H](CO)[C@@H](O)[C@@]1(C)F
- Activity (Zika virus [1]): >90%
- CC50 (A549 [2]): > 50 µM
- EC50 (Zika virus [3]): 35.4 µM
- EC90 (Zika virus [3]): 50 µM

Compound: Cc1ccsc1C#Cc1cn([C@@H]2O[C@H](CO)[C@@H](O)[C@@]2(C)F)c2ncnc(C)c12
- Activity (Zika virus [1]): 40.2%

Compound: Cc1ncnc2c1c(C1CC1c1ccccc1)cn2[C@@H]1O[C@H](CO)[C@@H](O)[C@@]1(C)F (stereo not given in full)
- Activity (Zika virus [1]): <10%

Compound: Cc1ncnc2c1c(C#Cc1cccc(Br)c1)cn2[C@@H]1O[C@H](CO)[C@@H](O)[C@@]1(C)F
- Activity (Zika virus [1]): >90%
- CC50 (A549 [2]): > 50 µM
- EC50 (Zika virus [3]): 4.5 µM
- EC90 (Zika virus [3]): 15.4 µM

Compound: Cc1ncnc2c1c(C#Cc1ccccc1C(F)(F)F)cn2[C@@H]1O[C@H](CO)[C@@H](O)[C@@]1(C)F
- Activity (Zika virus [1]): 34.4%

Compound: Cc1ncnc2c1c(C#Cc1ccc(F)cc1)cn2[C@@H]1O[C@H](CO)[C@@H](O)[C@@]1(C)F
- Activity (Zika virus [1]): 37.5%

Compound: Cc1ccccc1C#Cc1cn([C@@H]2O[C@H](CO)[C@@H](O)[C@@]2(C)F)c2ncnc(C)c12
- Activity (Zika virus [1]): >90%
- CC50 (A549 [2]): > 50 µM
- EC50 (Zika virus [3]): 8.5 µM
- EC90 (Zika virus [3]): 25.7 µM

- Kd (NS5): 1.87 µM
Compound: Cc1ncnc2c1c(C#Cc1ccc(Br)c(F)c1)cn2[C@@H]1O[C@H](CO)[C@@H](O)[C@@]1(C)F
- EC50 (Zika virus [4]): 8.9 µM
- EC90 (Zika virus [4]; time 4 day): 19.8 µM
- CC50 (SNB-19): 49.4 µM
- EC50 (Zika virus [5]): 3.1 µM
- EC90 (Zika virus [5]; time 4 day): 7.1 µM
- EC50 (Zika virus [6]): 6.1 µM
- EC90 (Zika virus [6]; time 4 day): 14.6 µM
- CC50 (A549 [2]): > 50 µM
- EC50 (Zika virus [3]): 2.8 µM
- EC90 (Zika virus [3]): 6.8 µM
- EC50 (Zika virus [7]): 6.4 µM
- EC90 (Zika virus [7]; time 4 day): 18 µM
- EC50 (Zika virus [8]): 5.7 µM
- EC90 (Zika virus [8]; time 4 day): 16.4 µM
- Activity (A549 [9]): Active
- EC50 (Zika virus [10]): 6.4 µM
- EC90 (Zika virus [10]; time 4 day): 16.6 µM
- CC50 (Huh-7): 43.8 µM
- CC50 at 24 h [11]: 46.8 µM
- Activity (Vero): Active
- EC50 (Zika virus [12]): 7.7 µM
- EC90 (Zika virus [12]; time 4 day): 18.6 µM
- Activity (A549 [13]): Active
- Activity (A549 [14]): inactive

- Kd (NS5): 3.43 µM
Compound: C#C[C@@]1(O)[C@H](O)[C@@H](CO)O[C@H]1n1ccc2c(N)ncnc21
- CC50 (A549 [2]): > 50 µM
- EC50 (Zika virus [3]): 14 µM
- EC90 (Zika virus [3]): 30.9 µM

Compound: Cc1ccnc(C#Cc2cn([C@@H]3O[C@H](CO)[C@@H](O)[C@@]3(C)F)c3ncnc(C)c23)c1
- Activity (Zika virus [1]): <10%

Compound: Cc1cccc(C#Cc2cn([C@@H]3O[C@H](CO)[C@@H](O)[C@@]3(C)F)c3ncnc(C)c23)c1
- Activity (Zika virus [1]): >90%
- CC50 (A549 [2]): > 50 µM
- EC50 (Zika virus [3]): 7.1 µM
- EC90 (Zika virus [3]): 19.1 µM

Compound: Cc1ncnc2c1c(C#Cc1ccccc1Br)cn2[C@@H]1O[C@H](CO)[C@@H](O)[C@@]1(C)F
- Activity (Zika virus [1]): >90%
- CC50 (A549 [2]): > 50 µM
- EC50 (Zika virus [3]): 9.6 µM
- EC90 (Zika virus [3]): 19.7 µM

Compound: Cc1cccc(C#Cc2cn([C@@H]3O[C@H](CO)[C@@H](O)[C@@]3(C)F)c3ncnc(C)c23)n1
- Activity (Zika virus [1]): <10%

Compound: Cc1ncnc2c1c(C#CC(C)(C)C)cn2[C@@H]1O[C@H](CO)[C@@H](O)[C@@]1(C)F
- Activity (Zika virus [1]): 22.4%

Compound: Cc1ncnc2c1c(C#Cc1ccc(Br)cc1)cn2[C@@H]1O[C@H](CO)[C@@H](O)[C@@]1(C)F
- Activity (Zika virus [1]): >90%
- CC50 (A549 [2]): > 50 µM
- EC50 (Zika virus [3]): 4.4 µM
- EC90 (Zika virus [3]): 14.7 µM

Compound: Cc1ncnc2c1c(C#CC1CC1)cn2[C@@H]1O[C@H](CO)[C@@H](O)[C@@]1(C)F
- Activity (Zika virus [1]): <10%

Compound: COc1cccc(C#Cc2cn([C@@H]3O[C@H](CO)[C@@H](O)[C@@]3(C)F)c3ncnc(C)c23)n1
- Activity (Zika virus [1]): <10%
